Experimental data as given in patent US20080234233A1, “MEDICAMENT FOR TREATMENT OF NEURODEGENERATIVE DISEASES” (INSTITUTE OF MEDICINAL MOLECULAR DESIGN INC., priority 2002, published 2008).

Tested on: NF-κ B activation
Test: Inhibitory activity of NF-κB activation, luciferase reporter assay under TNF-α stimulation in HepG2
Type: cell-based, human
Details: HepG2, TNF-α 40 ng/ml, 4 hours; for inhibition at 1 µg/mL / inhibition at 10 µg/mL: Homo sapiens, read-out: Inhibitory rate against NF-κB activation (%)
Description: Measurement of Inhibitory Activity of NF-κB activation
Using a transfection reagent (Effectene; QIAGEN), the human hepatoma cell strain HepG2 was transfected with a plasmid (pNF κ B-Luc Reporter Plasmid; […]) integrated with an oligonucleotide having five tandem copies of NF-κ B binding sequences([…]) on a upstream region of firefly luciferase gene(Luc) according to the QIAGEN's protocol, and the cells were incubated for 6 to 24 hours. After addition of TNF-α (40 ng/ml) in the presence or absence of a test compound, the cells were incubated for 4 hours, and intracellular luciferase activity was measured by using PicaGene LT (TOYO INK MFG Co., Ltd.) and a chemical luminescence measurement apparatus ([…]luor Plus; TECAN). The inhibitory ratio was measured as a ratio relative to the value of the luciferase activity in the absence of the test compound.

CC(=O)Oc1ccccc1C(=O)Nc1cc(C(F)(F)F)cc(C(F)(F)F)c1 [compound 1, 2-acetoxy-N-[3,5-bis(trifluoromethyl)phenyl]benzamide]
inhibition at 1 µg/mL (Drug concentration at 1 μg/mL): 90.9% | inhibition at 10 µg/mL (Drug concentration at 10 μg/mL): 97.1%

O=C(Nc1cc(C(F)(F)F)cc(C(F)(F)F)c1)c1ccccc1O [compound 2]
Inhibitory rate against NF-κB activation (%) (Drug concentration at 1 μg/mL): 93.3% | Inhibitory rate against NF-κB activation (%) (Drug concentration at 10 μg/mL): 95.6%

O=C(Nc1cc(C(F)(F)F)cc(C(F)(F)F)c1)c1cc(F)ccc1O [compound 3]
Inhibitory rate against NF-κB activation (%) (Drug concentration at 1 μg/mL): 81.5% | Inhibitory rate against NF-κB activation (%) (Drug concentration at 10 μg/mL): 94.3%

CC(=O)Oc1ccc(Cl)cc1C(=O)Nc1cc(C(F)(F)F)cc(C(F)(F)F)c1 [compound 5]
Inhibitory rate against NF-κB activation (%) (Drug concentration at 1 μg/mL): 96.5% | Inhibitory rate against NF-κB activation (%) (Drug concentration at 10 μg/mL): 99.2%

O=C(Nc1cc(C(F)(F)F)cc(C(F)(F)F)c1)c1cc([N+](=O)[O-])ccc1O [compound 8, N-[3,5-bis(trifluoromethyl)phenyl]-2-hydroxy-5-nitrobenzamide]
inhibition at 1 µg/mL (Drug concentration at 1 μg/mL): 92% | inhibition at 10 µg/mL (Drug concentration at 10 μg/mL): 99.2%

N#Cc1ccc(O)c(C(=O)Nc2cc(C(F)(F)F)cc(C(F)(F)F)c2)c1 [compound 9, N-[3,5-Bis(trifluoromethyl)phenyl]-5-cyano-2-hydroxybenzamide]
inhibition at 1 µg/mL (Drug concentration at 1 μg/mL): 92.2% | inhibition at 10 µg/mL (Drug concentration at 10 μg/mL): 99.6%

Cc1ccc(O)c(C(=O)Nc2cc(C(F)(F)F)cc(C(F)(F)F)c2)c1 [compound 10]
Inhibitory rate against NF-κB activation (%) (Drug concentration at 1 μg/mL): 95.8% | Inhibitory rate against NF-κB activation (%) (Drug concentration at 10 μg/mL): 99.4%

CC(C)(C)c1ccc(O)c(C(=O)Nc2cc(C(F)(F)F)cc(C(F)(F)F)c2)c1 [compound 11, N-[3,5-Bis(trifluoromethyl)phenyl]-5-[(1,1-dimethyl)ethyl]-2-hydroxybenzamide]
inhibition at 1 µg/mL (Drug concentration at 1 μg/mL): 92.9% | inhibition at 10 µg/mL (Drug concentration at 10 μg/mL): 98.3%

CC(=O)c1ccc(O)c(C(=O)Nc2cc(C(F)(F)F)cc(C(F)(F)F)c2)c1 [compound 12, 5-Acetyl-N-[3,5-bis(trifluoromethyl)phenyl]-2-hydroxybenzamide]
inhibition at 1 µg/mL (Drug concentration at 1 μg/mL): 86.3% | inhibition at 10 µg/mL (Drug concentration at 10 μg/mL): 99.2%

CC(O)c1ccc(O)c(C(=O)Nc2cc(C(F)(F)F)cc(C(F)(F)F)c2)c1 (stereo not shown) [compound 13]
Inhibitory rate against NF-κB activation (%) (Drug concentration at 1 μg/mL): 76.8% | Inhibitory rate against NF-κB activation (%) (Drug concentration at 10 μg/mL): 96.0%

CON=C(C)c1ccc(O)c(C(=O)Nc2cc(C(F)(F)F)cc(C(F)(F)F)c2)c1 [compound 14]
Inhibitory rate against NF-κB activation (%) (Drug concentration at 1 μg/mL): 94.7% | Inhibitory rate against NF-κB activation (%) (Drug concentration at 10 μg/mL): 98.3%

CC(=NOCc1ccccc1)c1ccc(O)c(C(=O)Nc2cc(C(F)(F)F)cc(C(F)(F)F)c2)c1 [compound 15]
Inhibitory rate against NF-κB activation (%) (Drug concentration at 1 μg/mL): 94.5% | Inhibitory rate against NF-κB activation (%) (Drug concentration at 10 μg/mL): 99.2%

N#CC(C#N)=Cc1ccc(O)c(C(=O)Nc2cc(C(F)(F)F)cc(C(F)(F)F)c2)c1 [compound 16, N-[3,5-Bis(trifluoromethyl)phenyl]-5-(2,2-dicyanoethen-1-yl)-2-hydroxybenzamide]
inhibition at 1 µg/mL (Drug concentration at 1 μg/mL): 42.7% | inhibition at 10 µg/mL (Drug concentration at 10 μg/mL): 99.4%

COC(=O)C(C#N)=Cc1ccc(O)c(C(=O)Nc2cc(C(F)(F)F)cc(C(F)(F)F)c2)c1 [compound 17, 3-({N-[3,5-Bis(trifluoromethyl)phenyl]carbamoyl}-4-hydroxyphenyl)-2-cyanoacrylic acid methyl ester]
Inhibitory rate against NF-κB activation (%) (Drug concentration at 1 μg/mL): 74.9% | Inhibitory rate against NF-κB activation (%) (Drug concentration at 10 μg/mL): 99.1%

N#CC(=Cc1ccc(O)c(C(=O)Nc2cc(C(F)(F)F)cc(C(F)(F)F)c2)c1)C(=O)O [compound 18]
Inhibitory rate against NF-κB activation (%) (Drug concentration at 1 μg/mL): 59.7% | Inhibitory rate against NF-κB activation (%) (Drug concentration at 10 μg/mL): 98.5%

C[Si](C)(C)C#Cc1ccc(O)c(C(=O)Nc2cc(C(F)(F)F)cc(C(F)(F)F)c2)c1 [compound 20, N-[3,5-bis(trifluoromethyl)phenyl]-2-hydroxy-5-[(trimethylsilyl)ethynyl]benzamide]
inhibition at 1 µg/mL (Drug concentration at 1 μg/mL): 91.1% | inhibition at 10 µg/mL (Drug concentration at 10 μg/mL): 94.9%

C#Cc1ccc(O)c(C(=O)Nc2cc(C(F)(F)F)cc(C(F)(F)F)c2)c1 [compound 21]
Inhibitory rate against NF-κB activation (%) (Drug concentration at 1 μg/mL): 53.3% | Inhibitory rate against NF-κB activation (%) (Drug concentration at 10 μg/mL): 90.1%
